According to patent publication US10342836B2, “Composition having a function for alleviating premenstrual syndrome and menstrual pain” (AMOREPACIFIC CORPORATION, priority 2013, dated 2019):

Tested on: women of child-bearing ages
Assay: Evaluation of improvement in premenstrual syndrome and menstrual pain by questionnaire before and after about 4 weeks of oral tablets
Type: in vivo, human
Description: The American Psychiatric Association presents the following diagnosis standard for premenstrual syndrome.
According to the standard, women who satisfy at least 5 of the following 11 items and at least one of the first 4 items were selected for test.
(1) Quick change in emotion; sudden sadness, anger or rage
(2) Persistent severe anger and uneasiness
(3) Uneasiness and tension
(4) Depression and hopelessness
(5) Disinterest in daily lives
(6) Fatigue or low energy
(10) Difficulty in emotion control
(11) Breast tenderness, headache, edema, muscle or joint pain and weight gain
For the test, 350 mg tablets containing 100 wt % of the ginseng fruit extract of
A table top tablet making machine (Erweka, Germany) was used.
40 women were selected from 48 women of child-bearing ages (in their 20s to 50s) according to the diagnosis standard. They were divided into 4 groups: i.e., unadministered group, red ginseng group, ginsenoside Re group, and ginseng fruit group. Each group was composed of 10 subjects.
The red ginseng group was asked to take the red ginseng-containing tablets for 4 weeks, twice a day, two tablets once. That is to say, 1400 mg/day of red ginseng extract was administered to them.
The ginsenoside Re group was asked to take tablets containing ginsenoside Re as an active ingredient twice a day, two tablets once. […] The content of ginsenoside Re was determined based on the analysis result shown in FIG. 1 for comparison of the effect of improving premenstrual syndrome and menstrual pain of ginseng fruit extract and only ginsenoside Re contained therein.
The ginseng fruit group was asked to take the ginseng fruit extract-containing tablets for 4 weeks, twice a day, two tablets once. That is to say, 1400 mg/day of ginseng fruit extract was administered to them.
The 40 women were asked to answer questionnaires first after menstruation and, after the administration of nothing, the red ginseng extract or the ginseng fruit extract, to answer questionnaires after the next menstruation was over (about 4 weeks later). The improvement in the symptoms of premenstrual syndrome was evaluated by monitoring the change in total scores based on the questionnaires. One point was given for each item.

[1] = group total, n = 10 women, about 4 weeks, 1400 mg/day extract or 240 mg/day ginsenoside Re
[2] = n = 10 per group, about 4 weeks, 1400 mg/day extract or 240 mg/day ginsenoside Re

## CC(C)=CCC[C@](C)(O[C@@H]1O[C@H](CO)[C@@H](O)[C@H](O)[C@H]1O)[C@H]1CC[C@]2(C)[C@@H]1[C@H](O)C[C@@H]1[C@@]3(C)CC[C@H](O)C(C)(C)[C@@H]3[C@@H](O[C@@H]3O[C@H](CO)[C@@H](O)[C@H](O)[C@H]3O[C@@H]3O[C@@H](C)[C@H](O)[C@@H](O)[C@H]3O)C[C@]12C [Ginsenoside Re, ginsenoside Re]
[1]
  Total score, difference (before minus after administration): 9
  Total score, difference in percent of the score before administration: 12%
Group total, n = 10 women, after next menstruation (about 4 weeks), tablets twice a day, two tablets once: 1400 mg/day extract or 240 mg/day ginsenoside Re
  Total score (premenstrual syndrome questionnaire), after administration: 66
Group total, n = 10 women, one point per item (11 items), questionnaire after menstruation, before administration
  Total score (premenstrual syndrome questionnaire), before administration: 75
[2]
  Number of women who felt the symptoms, difference (before minus after): 2
  Number of women who felt the symptoms, difference in percent: 20%
N = 10 per group, after about 4 weeks, 1400 mg/day extract or 240 mg/day ginsenoside Re
  Number of women who felt the symptoms of premenstrual syndrome, after administration: 8
N = 10 per group, before administration
  Number of women who felt the symptoms of premenstrual syndrome, before administration: 10
